# Measurements taken from US20220033397A1, “PHARMACEUTICAL COMPOUNDS AND THEIR USE AS INHIBITORS OF UBIQUITIN SPECIFIC PROTEASE 19 (USP19)” (ALMAC DISCOVERY LIMITED, priority 2018, published 2022).
# Molecular target: T1, Full-length USP19 (Homo sapiens, UniProt O94966)
# T1 construct: Full-length USP19 was purchased from Boston Biochem (E-576); purchased Boston Biochem E-576
# T1 sequence (O94966 1-1318): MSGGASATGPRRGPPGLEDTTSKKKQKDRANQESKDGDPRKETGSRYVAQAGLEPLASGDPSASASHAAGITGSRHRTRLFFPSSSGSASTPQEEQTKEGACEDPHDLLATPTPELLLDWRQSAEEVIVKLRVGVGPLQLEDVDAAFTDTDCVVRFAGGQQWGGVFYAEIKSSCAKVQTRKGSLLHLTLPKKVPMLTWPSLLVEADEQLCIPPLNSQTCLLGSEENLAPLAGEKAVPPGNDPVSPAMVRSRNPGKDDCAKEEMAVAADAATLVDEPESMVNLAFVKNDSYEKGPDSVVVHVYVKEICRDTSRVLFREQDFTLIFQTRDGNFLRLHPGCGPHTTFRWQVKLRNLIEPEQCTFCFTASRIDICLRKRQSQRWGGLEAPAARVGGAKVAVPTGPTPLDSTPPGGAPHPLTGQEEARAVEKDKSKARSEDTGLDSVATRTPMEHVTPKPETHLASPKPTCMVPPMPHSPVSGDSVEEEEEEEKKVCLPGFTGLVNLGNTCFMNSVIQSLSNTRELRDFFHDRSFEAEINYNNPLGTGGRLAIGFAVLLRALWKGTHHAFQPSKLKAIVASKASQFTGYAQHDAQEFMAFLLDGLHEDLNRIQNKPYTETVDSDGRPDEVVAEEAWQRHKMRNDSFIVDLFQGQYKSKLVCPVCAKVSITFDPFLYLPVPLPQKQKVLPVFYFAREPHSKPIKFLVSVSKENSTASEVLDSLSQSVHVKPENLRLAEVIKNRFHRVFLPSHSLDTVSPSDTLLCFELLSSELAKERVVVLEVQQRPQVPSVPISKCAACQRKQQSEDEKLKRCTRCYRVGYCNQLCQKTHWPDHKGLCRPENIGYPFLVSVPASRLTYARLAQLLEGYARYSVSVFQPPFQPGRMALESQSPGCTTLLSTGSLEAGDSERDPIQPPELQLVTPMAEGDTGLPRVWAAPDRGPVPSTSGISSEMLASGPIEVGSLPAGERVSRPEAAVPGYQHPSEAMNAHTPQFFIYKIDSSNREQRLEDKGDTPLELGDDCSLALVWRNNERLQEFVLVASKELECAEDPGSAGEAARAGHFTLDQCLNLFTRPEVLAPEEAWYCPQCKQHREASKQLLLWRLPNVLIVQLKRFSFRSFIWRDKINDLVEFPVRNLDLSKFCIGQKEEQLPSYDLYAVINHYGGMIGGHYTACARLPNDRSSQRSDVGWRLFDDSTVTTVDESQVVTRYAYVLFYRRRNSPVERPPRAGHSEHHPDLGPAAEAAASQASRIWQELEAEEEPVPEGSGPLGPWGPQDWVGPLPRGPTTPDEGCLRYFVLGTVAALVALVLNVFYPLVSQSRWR
# Test: USP19 fluorescence polarisation (FP) homogeneous assay with Ubiquitin-Lys-TAMRA substrate
# Format: biochemical
# Conditions: 2.5 nM USP19, 30 min pre-incubation, average of at least two duplicate experiments
# Method in brief: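 Full-length USP19 preincubated 30 min at RT with inhibitor (200 μM to 2 μM series, 8–18 points) before adding 500 nM Ubiquitin-Lys-TAMRA substrate.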
row,IC50 [nM],Compound
1,< 500,"O=C(N1CC[C@@](O)(Cn2cnc(N3CC(F)(F)C3)cc2=O)C2(CCCC2)C1)N1CCNC[C@H]1c1ccccc1 [Example 357, 6-(3,3-Difluoro-azetidin-1-yl)-3-(((S)-10-hydroxy-7-((R)-2-phenylpiperazine-1-carbonyl)-7-aza-spiro[4.5]decan-10-yl)methyl)pyrimidin-4(3H)-one]"
2,< 500,"O=C(N1CC[C@@](O)(Cn2cnc(-c3ccccc3)cc2=O)C2(CCCC2)C1)N1CCNCC1c1cccs1 (stereo partly drawn) [Example 358, 3-(((10S)-10-Hy-droxy-7-(2-(thio-phen-2-yl)piperazine-1-carbonyl)-7-aza-spiro[4.5]decan-10-yl)methyl)-6-phenylpyrimidin-4(3H)-one]"
3,< 500,"O=C(N1CC[C@@](O)(Cn2cnc(N3CCC(F)(F)C3)cc2=O)C2(CCCC2)C1)N1CCNC[C@H]1c1ccccc1 [Example 359, 6-(3,3-Difluoro-pyrrolidin-1-yl)-3-(((S)-10-hydroxy-7-((R)-2-phenylpiperazine-1-carbonyl)-7-aza-spiro[4.5]decan-10-yl)methyl)pyrimidin-4(3H)-one]"
4,< 500,"O=C(N1CC[C@@](O)(Cn2cnc(-c3ccccc3C(F)(F)F)cc2=O)C2(CCCC2)C1)N1CCNC[C@H]1c1ccccc1 [Example 360, 3-(((S)-10-Hydroxy-7-((R)-2-phenylpiperazine-1-carbonyl)-7-azaspiro[4.5]decan-10-yl)methyl)-6-(2-(trifluoromethyl)phe-nyl)pyrimidin-4(3H)-one]"
5,< 500,"O=C(N1CC[C@@](O)(Cn2cnc(N3CCC(F)CC3)cc2=O)C2(CCCC2)C1)N1CCNC[C@H]1c1ccccc1 [Example 361, 6-(4-Fluoropiperidin-1-yl)-3-(((S)-10-hydroxy-7-((R)-2-phenylpiperazine-1-carbonyl)-7-aza-spiro[4.5]decan-10-yl)methyl)pyrimidin-4(3H)-one]"
6,< 500,"Cn1nc(C(F)(F)F)cc1-c1ccn(C[C@]2(O)CCN(C(=O)N3CCNC[C@H]3c3ccccc3)CC23CCCC3)c(=O)c1 [Example 362, 1-(((S)-10-Hydroxy-7-((R)-2-phenylpiperazine-1-carbonyl)-7-azaspiro [4.5]decan-10-yl)methyl)-4-(1-methyl-3-(trifluoromethyl)-1H-pyrazol-5-yl)pyri-din-2(1H)-one]"
7,< 500,"O=C(N1CC[C@@](O)(Cn2cnc(N3CCCC(F)(F)C3)cc2=O)C2(CCCC2)C1)N1CCNC[C@H]1c1ccccc1 [Example 363, 6-(3,3-Difluoro-piperidin-1-yl)-3-(((S)-10-hydroxy-7-((R)-2-phenylpiperazine-1-carbonyl)-7-azaspiro[4.5]decan-10-yl)methyl)pyrimi-din-4(3H)-one]"
8,< 500,"O=C(N1CC[C@@](O)(Cn2cnc(-c3ccccc3OC(F)F)cc2=O)C2(CCCC2)C1)N1CCNC[C@H]1c1ccccc1 [Example 364, 6-(2-(Difluoro-methoxy)phenyl)-3-(((S)-10-hydroxy-7-((R)-2-phenylpiperazine-1-carbonyl)-7-aza-spiro[4.5]decan-10-yl)methyl)pyrimidin-4(3H)-one]"
9,< 500,"O=C(N1CC[C@@](O)(Cn2cnc(-c3ccccc3OC3CC3)cc2=O)C2(CCCC2)C1)N1CCNC[C@H]1c1ccccc1 [Example 365, 6-(2-Cyclo-propoxyphenyl)-3-(((S)-10-hydroxy-7-((R)-2-phenylpipera-zine-1-carbonyl)-7-azaspiro[4.5]decan-10-yl)methyl)pyrimi-din-4(3H)-one]"
10,< 500,"O=C(N1CC[C@@](O)(Cn2cnc(-c3ccccc3C(F)F)cc2=O)C2(CCCC2)C1)N1CCNC[C@H]1c1ccccc1 [Example 366, 6-(2-(Difluoro-methyl)phenyl)-3-(((S)-10-hydroxy-7-((R)-2-phenylpiperazine-1-carbonyl)-7-aza-spiro[4.5]decan-10-yl)methyl)pyrimidin-4(3H)-one]"
11,< 500,"O=C(N1CC[C@@](O)(Cn2cnc(-c3ccccc3)cc2=O)C2(CCCC2)C1)N1CCNC[C@H]1c1cccc(F)c1F [Example 367, 3-(((S)-7-((R)-2-(2,3-Difluoro-phenyl)piper-azine-1-carbonyl)-10-hydroxy-7-azaspiro[4.5]decan-10-yl)methyl)-6-phenylpyrimidin-4(3H)-one]"
12,< 500,"O=C(N1CC[C@@](O)(Cn2cnc(-c3ccccc3)cc2=O)C2(CCCC2)C1)N1CCNC[C@H]1c1ccc(F)cc1F [Example 368, 3-(((S)-7-((R)-2-(2,4-Difluoro-phenyl)piper-azine-1-carbonyl)-10-hydroxy-7-azaspiro[4.5]decan-10-yl)methyl)-6-phenylpyrimidin-4(3H)-one]"
13,< 500,"O=C(N1CC[C@@](O)(Cn2cnc(-c3ccccc3)cc2=O)C2(CCCC2)C1)N1CCNC[C@H]1c1ccc(F)cc1 [Example 369, 3-(((S)-7-((R)-2-(4-Fluorophenyl)pipera-zine-1-carbonyl)-10-hydroxy-7-azaspiro[4.5]decan-10-yl)methyl)-6-phenylpyrimidin-4(3H)-one]"
14,< 500,"O=C(N1CC[C@@](O)(Cn2cnc(-c3ccccc3)cc2=O)C2(CCCC2)C1)N1CCNC[C@H]1c1ccccc1F [Example 370, 3-(((10S)-7-(2-(2-Fluorophenyl)pipera-zine-1-carbonyl)-10-hydroxy-7-azaspiro[4.5]decan-10-yl)methyl)-6-phenylpyrimidin-4(3H)-one]"
15,< 500,"Cn1ccc(-c2cc(=O)n(C[C@]3(O)CCN(C(=O)N4CCNC[C@H]4c4ccccc4)CC34CCCC4)cn2)n1 [Example 371, 3-(((S)-10-Hydroxy-7-((R)-2-phenylpiperazine-1-carbonyl)-7-aza-spiro[4.5]decan-10-yl)methyl)-6-(1-methyl-1H-pyrazol-3-yl)pyrimidin-4(3H)-one]"
16,< 500,"O=C1CN(C(=O)N2CC[C@@](O)(Cn3cnc(-c4ccccc4)cc3=O)C3(CCCC3)C2)[C@H](c2ccccc2)CN1 [Example 372, 3-(((S)-10-Hydroxy-7-((R)-5-oxo-2-phenylpiperazine-1-carbonyl)-7-azaspiro[4.5]decan-10-yl)methyl)-6-phenylpyrimidin-4(3H)-one]"
17,< 500,"O=C(N1CC[C@@](O)(Cn2cnc(-c3ccccc3)cc2=O)C2(CCCC2)C1)N1CCNC[C@H]1c1cc(F)ccc1F [Example 373, 3-(((S)-7-((R)-2-(2,5-Difluorophenyl)piper-azine-1-carbonyl)-10-hydroxy-7-azaspiro[4.5]decan-10-yl)methyl)-6-phenylpyrimidin-4(3H)-one]"
18,< 500,"O=C(N1CCC(O)(Cn2ccc(-c3ccccc3)cc2=O)C2(CCCC2)C1)N1CCNCC1c1cc(F)ccc1F [Example 374, 1-(((S)-7-((R)-2-(2,5-Difluorophenyl)piper-azine-1-carbonyl)-10-hydroxy-7-azaspiro[4.5]decan-10-yl)methyl)-4-phenylpyridin-2(1H)-one]"
19,< 500,"O=C(N1CC[C@@](O)(Cn2cnc(-c3cccc(F)c3)cc2=O)C2(CCCC2)C1)N1CCNC[C@H]1c1cccc(F)c1 [Example 375, 6-(3-Fluorophenyl)-3-(((S)-7-((R)-2-(3-fluorophenyl)pipera-zine-1-carbonyl)-10-hydroxy-7-aza-spiro[4.5]decan-10-yl)methyl)pyrimidin-4(3H)-one]"
20,< 500,"O=C(N1CC[C@@](O)(Cn2cnc(-c3cccc(F)c3)cc2=O)C2(CCCC2)C1)N1CCNC[C@H]1c1cc(F)ccc1F [Example 376, 3-(((S)-7-((R)-2-(2,5-Difluorophenyl)piper-azine-1-carbonyl)-10-hydroxy-7-azaspiro[4.5]decan-10-yl)methyl)-6-(3-fluorophenyl)pyrimi-din-4(3H)-one]"
21,< 500,"O=C(N1CC[C@@](O)(Cn2cnc(C3CC3)cc2=O)C2(CCCC2)C1)N1CCNC[C@H]1c1cccc(F)c1 [Example 377, 6-Cyclopropyl-3-(((S)-7-((R)-2-(3-fluoro-phenyl)piperazine-1-carbonyl)-10-hydroxy-7-aza-spiro[4.5]decan-10-yl)methyl)pyrimidin-4(3H)-one]"
